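All cell lines were grown in 96-well plates and treated with compound for 48 hours. TGI is the concentration that stops growth completely.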
What was measured:
Assay in all cases: NCI-60 cell line screen, 48 h
LOX IMVI melanoma = tested on: LOX IMVI melanoma
MALME-3M melanoma = tested on: MALME-3M melanoma
SF-268 CNS = tested on: SF-268 CNS
786-0 renal = tested on: 786-0 renal
RXF 393 renal = tested on: RXF 393 renal
RPMI-8226 leukemia = tested on: RPMI-8226 leukemia
K-562 leukemia = tested on: K-562 leukemia
DMS 273 small cell lung = tested on: DMS 273 small cell lung
OVCAR-8 ovarian = tested on: OVCAR-8 ovarian
IGROV1 ovarian = tested on: IGROV1 ovarian
KM12 colon = tested on: KM12 colon
SNB-75 CNS = tested on: SNB-75 CNS
CAKI-1 renal = tested on: CAKI-1 renal
SW-620 colon = tested on: SW-620 colon
EKVX NSCLC = tested on: EKVX NSCLC
SR leukemia = tested on: SR leukemia
SK-MEL-5 melanoma = tested on: SK-MEL-5 melanoma
SN12C renal = tested on: SN12C renal
HOP-62 NSCLC = tested on: HOP-62 NSCLC
A549 NSCLC = tested on: A549 NSCLC
UACC-62 melanoma = tested on: UACC-62 melanoma
HT29 colon = tested on: HT29 colon
HOP-18 NSCLC = tested on: HOP-18 NSCLC
SK-MEL-28 melanoma = tested on: SK-MEL-28 melanoma
TK-10 renal = tested on: TK-10 renal
SF-539 CNS = tested on: SF-539 CNS
DLD-1 colon = tested on: DLD-1 colon
ACHN renal = tested on: ACHN renal
RXF-631 renal = tested on: RXF-631 renal
NCI-H226 lung = tested on: NCI-H226 lung
OVCAR-3 ovarian = tested on: OVCAR-3 ovarian
NCI-H460 lung = tested on: NCI-H460 lung
OVCAR-5 ovarian = tested on: OVCAR-5 ovarian
U251 CNS = tested on: U251 CNS
MOLT-4 leukemia = tested on: MOLT-4 leukemia
DMS 114 small cell lung = tested on: DMS 114 small cell lung
SF-295 CNS = tested on: SF-295 CNS
HCT-15 colon = tested on: HCT-15 colon
OVCAR-4 ovarian = tested on: OVCAR-4 ovarian
UO-31 renal = tested on: UO-31 renal
NCI-H522 lung = tested on: NCI-H522 lung
UACC-257 melanoma = tested on: UACC-257 melanoma
SNB-19 CNS = tested on: SNB-19 CNS
NCI-H23 lung = tested on: NCI-H23 lung
COLO 205 colon = tested on: COLO 205 colon
HCT-116 colon = tested on: HCT-116 colon
LXFL 529 NSCLC = tested on: LXFL 529 NSCLC
KM20L2 colon = tested on: KM20L2 colon
A498 renal = tested on: A498 renal
HCC-2998 colon = tested on: HCC-2998 colon
SK-MEL-2 melanoma = tested on: SK-MEL-2 melanoma
M14 melanoma = tested on: M14 melanoma
XF 498 CNS = tested on: XF 498 CNS
SNB-78 CNS = tested on: SNB-78 CNS
HL-60(TB) leukemia = tested on: HL-60(TB) leukemia
HOP-92 NSCLC = tested on: HOP-92 NSCLC
M19-MEL melanoma = tested on: M19-MEL melanoma
SK-OV-3 ovarian = tested on: SK-OV-3 ovarian
CCRF-CEM leukemia = tested on: CCRF-CEM leukemia

O=C1c2ccccc2C(=O)c2nc3c(O)cccc3cc21
TGI (LOX IMVI melanoma): > 100 µM
TGI (MALME-3M melanoma): > 100 µM
TGI (SF-268 CNS): > 100 µM
TGI (786-0 renal): > 100 µM
TGI (RXF 393 renal): > 100 µM
TGI (RPMI-8226 leukemia): > 100 µM
TGI (K-562 leukemia): > 100 µM
TGI (DMS 273 small cell lung): > 100 µM
TGI (OVCAR-8 ovarian): > 100 µM
TGI (IGROV1 ovarian): > 100 µM
TGI (KM12 colon): > 100 µM
TGI (SNB-75 CNS): > 100 µM
TGI (CAKI-1 renal): > 100 µM
TGI (SW-620 colon): > 100 µM
TGI (EKVX NSCLC): > 100 µM
TGI (SR leukemia): > 100 µM
TGI (SK-MEL-5 melanoma): 18.5 µM
TGI (SN12C renal): > 100 µM
TGI (HOP-62 NSCLC): > 100 µM
TGI (A549 NSCLC): > 100 µM
TGI (UACC-62 melanoma): > 100 µM
TGI (HT29 colon): 52.9 µM
TGI (HOP-18 NSCLC): > 100 µM
TGI (SK-MEL-28 melanoma): > 100 µM
TGI (TK-10 renal): > 100 µM
TGI (SF-539 CNS): > 100 µM
TGI (DLD-1 colon): > 100 µM
TGI (ACHN renal): > 100 µM
TGI (RXF-631 renal): > 100 µM
TGI (NCI-H226 lung): > 100 µM
TGI (OVCAR-3 ovarian): 4.98 µM
TGI (NCI-H460 lung): > 100 µM
TGI (OVCAR-5 ovarian): > 100 µM
TGI (U251 CNS): > 100 µM
TGI (MOLT-4 leukemia): 23 µM
TGI (DMS 114 small cell lung): 20.7 µM
TGI (SF-295 CNS): 74.1 µM
TGI (HCT-15 colon): > 100 µM
TGI (OVCAR-4 ovarian): > 100 µM
TGI (UO-31 renal): > 100 µM
TGI (NCI-H522 lung): 72.2 µM
TGI (UACC-257 melanoma): 32.4 µM
TGI (SNB-19 CNS): > 100 µM
TGI (NCI-H23 lung): > 100 µM
TGI (COLO 205 colon): > 100 µM
TGI (HCT-116 colon): 19.4 µM
TGI (LXFL 529 NSCLC): > 100 µM
TGI (KM20L2 colon): > 100 µM
TGI (A498 renal): 64.2 µM
TGI (HCC-2998 colon): > 100 µM
TGI (SK-MEL-2 melanoma): > 100 µM
TGI (M14 melanoma): 27.9 µM

[N-]=[N+]=Nc1ncnc2c1sc(=S)n2-c1ccccc1
TGI (LOX IMVI melanoma): > 100 µM
TGI (MALME-3M melanoma): > 100 µM
TGI (SF-268 CNS): > 100 µM
TGI (786-0 renal): > 100 µM
TGI (RXF 393 renal): > 100 µM
TGI (RPMI-8226 leukemia): > 100 µM
TGI (K-562 leukemia): > 100 µM
TGI (DMS 273 small cell lung): > 100 µM
TGI (OVCAR-8 ovarian): > 100 µM
TGI (IGROV1 ovarian): > 100 µM
TGI (KM12 colon): > 100 µM
TGI (SNB-75 CNS): > 100 µM
TGI (CAKI-1 renal): > 100 µM
TGI (SW-620 colon): > 100 µM
TGI (EKVX NSCLC): > 100 µM
TGI (SR leukemia): > 100 µM
TGI (SK-MEL-5 melanoma): > 100 µM
TGI (SN12C renal): > 100 µM
TGI (HOP-62 NSCLC): 52.7 µM
TGI (A549 NSCLC): > 100 µM
TGI (UACC-62 melanoma): > 100 µM
TGI (HT29 colon): > 100 µM
TGI (HOP-18 NSCLC): > 100 µM
TGI (SK-MEL-28 melanoma): > 100 µM
TGI (TK-10 renal): > 100 µM
TGI (SF-539 CNS): > 100 µM
TGI (XF 498 CNS): > 100 µM
TGI (DLD-1 colon): > 100 µM
TGI (SNB-78 CNS): > 100 µM
TGI (ACHN renal): > 100 µM
TGI (HL-60(TB) leukemia): > 100 µM
TGI (NCI-H226 lung): > 100 µM
TGI (OVCAR-3 ovarian): > 100 µM
TGI (NCI-H460 lung): > 100 µM
TGI (OVCAR-5 ovarian): > 100 µM
TGI (U251 CNS): > 100 µM
TGI (MOLT-4 leukemia): > 100 µM
TGI (DMS 114 small cell lung): > 100 µM
TGI (HOP-92 NSCLC): > 100 µM
TGI (SF-295 CNS): > 100 µM
TGI (HCT-15 colon): > 100 µM
TGI (OVCAR-4 ovarian): > 100 µM
TGI (UO-31 renal): > 100 µM
TGI (M19-MEL melanoma): > 100 µM
TGI (NCI-H522 lung): > 100 µM
TGI (SK-OV-3 ovarian): > 100 µM
TGI (UACC-257 melanoma): > 100 µM
TGI (CCRF-CEM leukemia): > 100 µM
TGI (SNB-19 CNS): > 100 µM
TGI (NCI-H23 lung): > 100 µM
TGI (COLO 205 colon): > 100 µM
TGI (HCT-116 colon): > 100 µM
TGI (LXFL 529 NSCLC): > 100 µM
TGI (KM20L2 colon): > 100 µM
TGI (A498 renal): > 100 µM
TGI (HCC-2998 colon): > 100 µM
TGI (SK-MEL-2 melanoma): > 100 µM
TGI (M14 melanoma): > 100 µM

CN(C)[C@@H]1C(=O)C(C(=O)NCN2CCN(C(=N)N=C(N)N)CC2)=C(O)[C@@]2(O)C(=O)C3=C(O)c4c(O)cccc4[C@@](C)(O)[C@H]3C[C@@H]12
TGI (LOX IMVI melanoma): 2.04 µM
TGI (MALME-3M melanoma): 0.566 µM
TGI (RXF 393 renal): 0.245 µM
TGI (RPMI-8226 leukemia): 14.7 µM
TGI (K-562 leukemia): 10.5 µM
TGI (DMS 273 small cell lung): 0.922 µM
TGI (OVCAR-8 ovarian): 11.2 µM
TGI (IGROV1 ovarian): 22 µM
TGI (KM12 colon): 16.9 µM
TGI (SNB-75 CNS): 0.338 µM
TGI (CAKI-1 renal): > 100 µM
TGI (SW-620 colon): 11 µM
TGI (EKVX NSCLC): 0.624 µM
TGI (SR leukemia): 2.3 µM
TGI (SK-MEL-5 melanoma): 0.431 µM
TGI (SN12C renal): 15.1 µM
TGI (HOP-62 NSCLC): 3.99 µM
TGI (HT29 colon): 16.7 µM
TGI (SK-MEL-28 melanoma): 0.541 µM
TGI (TK-10 renal): 14.8 µM
TGI (SF-539 CNS): 0.415 µM
TGI (DLD-1 colon): 19.6 µM
TGI (SNB-78 CNS): 0.471 µM
TGI (ACHN renal): > 100 µM
TGI (RXF-631 renal): 0.763 µM
TGI (OVCAR-3 ovarian): 34.8 µM
TGI (NCI-H460 lung): 20.2 µM
TGI (OVCAR-5 ovarian): 0.709 µM
TGI (U251 CNS): 0.809 µM
TGI (MOLT-4 leukemia): 0.349 µM
TGI (HOP-92 NSCLC): 0.635 µM
TGI (SF-295 CNS): 6.82 µM
TGI (HCT-15 colon): 12.2 µM
TGI (UO-31 renal): 0.982 µM
TGI (M19-MEL melanoma): 2.28 µM
TGI (NCI-H522 lung): 0.143 µM
TGI (SK-OV-3 ovarian): 15.8 µM
TGI (UACC-257 melanoma): 6.29 µM
TGI (CCRF-CEM leukemia): > 100 µM
TGI (SNB-19 CNS): 15.9 µM
TGI (NCI-H23 lung): 0.33 µM
TGI (COLO 205 colon): 14.1 µM
TGI (HCT-116 colon): 17.8 µM
TGI (LXFL 529 NSCLC): 11.1 µM
TGI (KM20L2 colon): 11.6 µM
TGI (A498 renal): 4.88 µM
TGI (SK-MEL-2 melanoma): 0.255 µM
TGI (M14 melanoma): 1.14 µM

From PubChem BioAssay (NCI)
